The values that follow come from ChEMBL document CHEMBL1145584, “Cycloalkyl-substituted aryl chloroethylureas inhibiting cell cycle progression in G0/G1 phase and thioredoxin-1 nuclear translocation” (2008).

Activity calls are given as the source filed them. The calls are words filed in the database; no cut-off is given here.

Test [1] deals with HT-29. In words: Antiproliferative activity against human HT29 cells. It counts as functional.
The subject of test [2] is M21. In words: Antiproliferative activity against human M21 cells. It counts as functional.
In test [3] the test system is MCF7. In words: Antiproliferative activity against human MCF7 cells. It counts as functional.
The test system of test [4] is MCF7. In words: Cell cycle arrest in human MCF7 cells assessed as increase in G0/G1 phase accumulation at 50 uM after 16 hrs by FACS analysis. It counts as functional.
Test [5] concerns MCF7. In words: Cell cycle arrest in human MCF7 cells assessed as increase in S phase accumulation at 50 uM after 16 hrs by FACS analysis. It counts as functional. Background: A flow cytometer gives signals particle by particle.
For test [6], the system named is MCF7. In words: Cell cycle arrest in human MCF7 cells assessed as increase in G2/M phase accumulation at 50 uM after 16 hrs by FACS analysis. It counts as functional.
The subject of test [7] is M21. In words: Effect on thioredoxin-1 nuclear translocation in human M21 cells at 50 uM by immunocytochemistry analysis. It counts as functional, cell-based.
In test [8] the test system is MCF7. In words: Cell cycle arrest in human MCF7 cells assessed as increase in G0/G1 phase accumulation at 25 uM after 16 hrs by FACS analysis. It counts as functional.
Test [9] has as its system MCF7. In words: Cell cycle arrest in human MCF7 cells assessed as increase in S phase accumulation at 25 uM after 16 hrs by FACS analysis. It counts as functional.
Test [10] deals with MCF7. In words: Cell cycle arrest in human MCF7 cells assessed as increase in G2/M phase accumulation at 25 uM after 16 hrs by FACS analysis. It counts as functional.
Test [11] deals with M21. In words: Effect on thioredoxin-1 nuclear translocation in human M21 cells at 25 uM by immunocytochemistry analysis. It counts as functional, cell-based.
In test [12] the test system is HT-29. In words: Antiproliferative activity against human HT29 cells at 100 uM. It counts as functional, cell-based.
Test [13] concerns M21. In words: Antiproliferative activity against human M21 cells at 100 uM. It counts as functional, cell-based.
Test [14] concerns MCF7. In words: Antiproliferative activity against human MCF7 cells at 100 uM. It counts as functional, cell-based.
Test [15] has as its system MCF7. In words: Cell cycle arrest in human MCF7 cells assessed as increase in G0/G1 phase accumulation at 0.1 uM after 16 hrs by FACS analysis. It counts as functional.
In test [16] the test system is MCF7. In words: Cell cycle arrest in human MCF7 cells assessed as increase in S phase accumulation at 0.1 uM after 16 hrs by FACS analysis. It counts as functional.
Test [17] has as its system MCF7. In words: Cell cycle arrest in human MCF7 cells assessed as increase in G2/M phase accumulation at 0.1 uM after 16 hrs by FACS analysis. It counts as functional.
Test [18] concerns MCF7. In words: Cell cycle arrest in human MCF7 cells assessed as increase in G0/G1 phase accumulation at 1 time GI50 after 25 hrs by flow cytometry. It counts as functional, cell-based.
For test [19], the system named is MCF7. In words: Cell cycle arrest in human MCF7 cells assessed as increase in G0/G1 phase accumulation at 2 times GI50 after 25 hrs by flow cytometry. It counts as functional, cell-based.
For test [20], the system named is MCF7. In words: Cell cycle arrest in human MCF7 cells assessed as increase in G0/G1 phase accumulation at 4 times GI50 after 25 hrs by flow cytometry. It counts as functional, cell-based.
In test [21] the test system is M21. In words: Effect on thioredoxin-1 nuclear translocation in human M21 cells at 50 uM after 24 hrs by Western blot analysis. It counts as functional, cell-based. For orientation: A western blot detects proteins with antibodies after separation by electrophoresis.
The test system of test [22] is M21. In words: Effect on thioredoxin-1 nuclear translocation in human M21 cells at 30 uM after 24 hrs by Western blot analysis. It counts as functional, cell-based.
Test [23] has as its system M21. In words: Effect on thioredoxin-1 nuclear translocation in human M21 cells at 25 uM after 24 hrs by Western blot analysis. It counts as functional, cell-based.
Test [24] has as its system MCF7. In words: Cell cycle arrest in human MCF7 cells assessed as increase in G2/M phase accumulation at 1 time GI50 after 25 hrs by flow cytometry. It counts as functional, cell-based.
Test [25] concerns MCF7. In words: Cell cycle arrest in human MCF7 cells assessed as increase in G2/M phase accumulation at 2 times GI50 after 25 hrs by flow cytometry. It counts as functional, cell-based.
For test [26], the system named is MCF7. In words: Cell cycle arrest in human MCF7 cells assessed as increase in G2/M phase accumulation at 4 times GI50 after 25 hrs by flow cytometry. It counts as functional, cell-based.

On to `O=C(NCCCl)Nc1cccc(OC2CCCCCC2)c1`, for which the GI50 (usually the concentration at which growth is held to half of that of the control) in the test on HT-29 [1] was found to be 10.7 µM; in the test on M21 [2], 20 µM; with MCF7 [3], 21 µM. Also, the Activity is listed as 72% in the test with MCF7 [4], 22% in the test on MCF7 [5] and 6% in the test on MCF7 [6]. The outcome with M21 [7] was Active.

As to `O=C(NCCCl)Nc1ccc(Oc2ccccc2)cc1`, the GI50 came to 2.4 µM in the test with HT-29 [1], 5.2 µM with M21 [2] and 9.1 µM in the test with MCF7 [3]. Also, the Activity came to 15% in the test on MCF7 [8], 20% in the test on MCF7 [9] and 65% with MCF7 [10]. Also, the outcome in the test on M21 [11] was inactive.

In the case of `CCNC(=O)Nc1ccc(C2CCCCC2)cc1`, the result in the test with HT-29 [12], in the test with M21 [13] and with MCF7 [14] was inactive. Besides, the Activity in the test with MCF7 [4] is 55%; with MCF7 [5] it was 23%; in the test on MCF7 [6] it was 22%.

On to `CC(=O)O[C@H]1C(=O)[C@@]2(C)[C@H]([C@H](OC(=O)c3ccccc3)[C@]3(O)C[C@H](OC(=O)[C@H](O)[C@@H](NC(=O)c4ccccc4)c4ccccc4)C(C)=C1C3(C)C)[C@]1(OC(C)=O)CO[C@@H]1C[C@@H]2O` [PACLITAXEL], for which the results for the Activity in the test on MCF7 [15], in the test with MCF7 [16] and with MCF7 [17] were 9%, 11% and 80%, respectively.

As for `O=C(NCCCl)NC1c2ccccc2-c2ccccc21`, the figures for the GI50 in the test with HT-29 [1], in the test with M21 [2] and in the test with MCF7 [3] were 19 µM, 27 µM and 22 µM, respectively. The figures for the Activity in the test on MCF7 [4], in the test with MCF7 [5] and in the test with MCF7 [6] were 63%, 29% and 8%, respectively. The outcome with M21 [7] was Active.

Take `O=C(NCCCl)Nc1ccc(C2CCCCC2)cc1`: the GI50 turned out to be 12.6 µM in the test with HT-29 [1], 21 µM in the test on M21 [2] and 21 µM with MCF7 [3]. The Activity is 71% with MCF7 [4], 16% with MCF7 [5] and 13% in the test with MCF7 [6]. The result with MCF7 [18], with MCF7 [19], in the test with MCF7 [20], in the test with M21 [7], in the test on M21 [21] and in the test with M21 [22] was Active.

`O=C(NCCCl)Nc1ccc(I)cc1`: the results for the Activity in the test on MCF7 [8], in the test with MCF7 [9] and in the test on MCF7 [10] were 25%, 33% and 42%, respectively. Moreover, the result in the test on M21 [11] was Active.

For `CC(C)(C)c1ccc(NC(=O)NCCCl)cc1`, the Activity with MCF7 [8] came to 17%; in the test with MCF7 [9], 24%; in the test on MCF7 [10] it was 58%. For the same compound, the outcome in the test with M21 [23] and in the test with M21 [22] was inactive.

Consider `O=C(NCCCl)Nc1cccc(Oc2ccccc2)c1`, for which the values for the GI50 in the test with HT-29 [1], in the test with M21 [2] and in the test with MCF7 [3] were 5.6 µM, 16 µM and 24 µM, respectively. For the same compound, the Activity in the test with MCF7 [4] was determined as 44%; in the test on MCF7 [5] it was 26%; in the test with MCF7 [6], 30%. For the same compound, the outcome in the test with M21 [7] was inactive.

As to `O=C(NCCCl)Nc1ccc(OC2CCCCC2)cc1`, the values for the GI50 in the test on HT-29 [1], in the test with M21 [2] and with MCF7 [3] were 23 µM, 36 µM and 45 µM, respectively. Further, the Activity with MCF7 [4] was found to be 57%; in the test on MCF7 [5] it was 29%; with MCF7 [6], 14%. Moreover, in the test with M21 [7], the outcome was Active.

For `CCC(C)SSc1ncc[nH]1` (stereo not drawn) [PX-12], the GI50 with HT-29 [1] was 25 µM; in the test on M21 [2], 8.3 µM; in the test with MCF7 [3], 8.3 µM. In addition, the Activity in the test on MCF7 [8] was 29%; with MCF7 [9], 13%; in the test with MCF7 [10], 58%.

With `O=C(NCCCl)Nc1ccc(OC2CCCC2)cc1`, the results for the GI50 with HT-29 [1], in the test with M21 [2] and in the test on MCF7 [3] were 31 µM, 38 µM and 49 µM, respectively. For the same compound, the Activity is reported as 72% in the test on MCF7 [4], 19% in the test with MCF7 [5] and 9% in the test with MCF7 [6]. Further, in the test with M21 [7], the outcome was Active.

As to `O=C(NCCCl)Nc1ccc2c(c1)CCC2`, the GI50 in the test with HT-29 [1] was determined as 3.6 µM; in the test with M21 [2], 8 µM; in the test with MCF7 [3], 14.1 µM. Also, the values for the Activity in the test with MCF7 [8], in the test with MCF7 [9] and with MCF7 [10] were 31%, 29% and 40%, respectively. Also, the outcome in the test on MCF7 [24], with MCF7 [25] and with MCF7 [26] was Active.

Turning to `O=C(NCCCl)Nc1ccc(OC2CCCCCC2)cc1`, the results for the GI50 in the test with HT-29 [1], with M21 [2] and in the test on MCF7 [3] were 12.5 µM, 18 µM and 19 µM, respectively. Further, the values for the Activity in the test on MCF7 [4], in the test with MCF7 [5] and in the test on MCF7 [6] were 75%, 19% and 6%, respectively. In addition, in the test on M21 [7], the result was Active.

Take `COc1cc2c(c(OC)c1OC)-c1ccc(OC)c(=O)cc1[C@@H](NC(C)=O)CC2` [COLCHICINE]: the Activity was 19% in the test with MCF7 [15], 19% in the test on MCF7 [16] and 62% in the test on MCF7 [17].

`O=C(NCCCl)Nc1cccc(OC2CCCC2)c1`: the GI50 was found to be 9.9 µM in the test with HT-29 [1], 22 µM with M21 [2] and 35 µM with MCF7 [3]. Besides, the Activity in the test with MCF7 [4] was 64%; in the test on MCF7 [5] it was 24%; with MCF7 [6], 12%. The result in the test with M21 [7] was Active.

For the compound `O=C(NCCCl)Nc1cccc(OC2CCCCC2)c1`, the GI50 is 7.9 µM with HT-29 [1], 20 µM with M21 [2] and 25 µM with MCF7 [3]. For the same compound, the Activity in the test on MCF7 [4] is listed as 59%; with MCF7 [5], 33%; with MCF7 [6], 8%. Moreover, the result in the test with M21 [7] was Active.

Take `O=C(NCCCl)Nc1ccc2ccccc2c1`: the GI50 with HT-29 [1] was 1.9 µM; in the test with M21 [2] it was 4.1 µM; in the test with MCF7 [3], 5.6 µM. The Activity in the test on MCF7 [4] is 17%; in the test with MCF7 [5], 38%; in the test with MCF7 [6], 45%. The result with M21 [7] was Active.
